From US11161845B2, “Pyrrolopyridine-aniline compounds for treatment of dermal disorders” (Nflection Therapeutics, Inc., priority 2017, dated 2021)

Key:
[1] = biological target: T1, MEK1 (Homo sapiens, UniProt Q02750); assay: MEK inhibition assay, Biological Example 1a (33P-ATP, P81 filter-binding); conditions: read-out: Assay 1: biochemical MEK IC50
T1 construct: N-terminal His-tagged recombinant human full length protein; His (N); purchased Invitrogen PV3303; host or cells: insect cells
Description: MEK1 inhibitory activity of compounds were tested using the following procedure. […] Activated in vitro by RAF1. MW=49.2 kDa, GenBank Accession No. NP_002746. • Substrate: 5 μM ERK2 (K52R), • Kinase-dead mutant, (GenBank Accession No. NM_0011949), aa2-358 with N-terminal His6 tag, MW=43.63 kDa, expressed in E. coli.
The substrate was prepared in freshly prepared Reaction Buffer. The kinase was delivered into the substrate solution and gently mixed. Test compounds were delivered in 100% DMSO into the kinase reaction mixture by Acoustic technology (Echo550; nanoliter range), and incubated for 20 min at room temperature. ^33P-ATP was delivered into the reaction mixture to initiate the reaction. The reaction mixture was incubated for 2 hours at room temperature. Kinase activity was detected by P81 filter-binding method.

[2] = Compound levels in neck/back skin (LCMS), in vivo mouse model; parameters: species or system mice; conditions: for concentration at 1 h / concentration at 2 h: male, C57BL/6J, mouse, neck/back skin; for concentration at 1 h: 1 h after final application; for concentration at 2 h: 2 h after final application; for Compound Levels in Neck/Back Skin: pre-dose (16 h)
Description: Week 4 (Experiment end): Skin and blood were collected right before the last morning dose (N=3), 1 hour (N=3 mice), and 2 hours (N=3 mice) after final application; Blood draw: Plasma compound levels (LCMS); Skin biopsy: formalin fixed for histology and p-ERK staining, flash frozen for Western analysis and skin compound levels (LCMS)
Skin biopsy and GI tract sampling: Skin was wiped down with 100% ethanol and a 1 cm^2 biopsy was obtained from compound application site each mouse at the 25 day end of experiment (except as noted below). The skin was biopsied prior to final dose from 3 mice, 1 hour after last compound application from 3 mice, 2 hours after last compound application from 3 mice. Half of the specimen were immediately flash frozen for LCMS analysis and Western Blot Analysis. Half of the specimen was fixed for 24 hours in 10% formalin and then transferred to ethanol for immunohistochemistry. Gastrointestinal tract was also formalin fixed overnight then transferred to 70% ETOH for storage.
Compound level analysis: Liquid chromatography with mass spectrometry method (LCMS) was used to detect compound levels in the skin and plasma. Tissues were preprocessed prior to LCMS as follows. Tissues were minced and incubated with collagenase and then finally homogenized using the stainless steel beads prior to LCMS analysis. Calibration curves and a QC test were run with each assay.

[3] = test system: C57BL/6J mice; assay: In vivo mouse model, skin and systemic toxicity of topical application (survival); conditions: for Survival Rates: twice daily 5 days per week, 10% BSA
Description: This study was designed to assess the skin toxicity and gross systemic toxicity of twice daily topical administration of a compound disclosed herein, as well as to evaluate the effect of metabolic lability on systemic toxicity.
Study Objective: The primary objective of this study was to characterize the skin and systemic toxicity of twice daily topical application of a compound disclosed herein, applied for 25 days in mice. Secondary objectives included determination of the 25-day skin and plasma compound levels of formulations containing three dosages of compound of Ex. 2 after application to 10% body surface area (BSA) murine skin; assessment of gross systemic toxicity from the application of compound of Ex. 2 after twice daily application to 10% BSA murine skin for 25 days; and determination of the correlation of skin and plasma compound levels with associated toxicity.
Mice: 8 week old male C57BL/6J mice (Jackson Laboratories) were shaved prior to start of study and weekly.
Compound application: Compounds were dissolved in a 50% DMSO/50% propyelene glycol vehicle. 0.125 mL of the following compounds were applied to the shaved dorsal back of mice (10% BSA) twice daily for 5 days per week for a total of 24 days. The second dose was applied 8 hours after first morning dose. All mice were shaved once per week at application site.
Oral trametinib was dissolved in 0.5% hydroxypropyl methylcellulose (Sigma-Aldrich) and 0.2% Tween-80 (Sigma-Aldrich) and administered by oral gavage (0.2 mL bolus or 10 mg/kg) once daily 5 days per week. These mice were also shaved weekly.
Weekly (Weeks 0-4): body weight measurements weekly, starting week 0 until experiment end; photographs of dorsal back and face of each mouse weekly, starting week 0 until experiment end; skin; and gross stool analysis assessed weekly for heme color, starting week 0 until experiment end.
The study planned for the mice to be sacrificed at Day 25.
Kaplan Meier curves were analyzed to determine progression to skin toxicity for each arm as compared with vehicle. T-test were used to compare compound levels at each dosage. Ki-67+ cells and p-ERK expression were also assessed on a cellular level via immunostaining. Western blots informed semi-quantitative changes in p-ERK expression.

T1 sequence (Q02750 whole entry): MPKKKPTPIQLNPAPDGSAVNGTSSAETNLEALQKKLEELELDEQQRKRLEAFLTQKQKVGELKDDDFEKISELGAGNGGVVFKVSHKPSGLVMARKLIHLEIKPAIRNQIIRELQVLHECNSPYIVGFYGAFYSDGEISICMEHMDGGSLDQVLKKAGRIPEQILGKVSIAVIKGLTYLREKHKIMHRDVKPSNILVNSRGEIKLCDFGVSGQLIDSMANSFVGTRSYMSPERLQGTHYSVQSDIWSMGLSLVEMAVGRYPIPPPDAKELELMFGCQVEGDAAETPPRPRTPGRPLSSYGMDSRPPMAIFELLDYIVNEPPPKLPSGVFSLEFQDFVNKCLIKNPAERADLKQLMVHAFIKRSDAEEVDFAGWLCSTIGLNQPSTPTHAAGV

Molecule `Cn1c(Nc2ccc(I)cc2F)c(C(=O)NOCCO)c2cccnc21` [Example 2, 2-((2-Fluoro-4-iodophenyl)amino)—N-(2-hydroxyethoxy)-1-methyl-1H-pyrrolo[2,3-b]pyridine-3-carboxamide] has an IC50 [1] of 246 nM, a concentration at 1 h ([2]; topical 0.1%) of 14 µg/mL and a concentration at 2 h ([2]; topical 0.1%) of 4.88 µg/mL. The concentration at 1 h ([2]; topical 0.5%) was 289 µg/mL, the concentration at 2 h ([2]; topical 0.5%) was 81.6 µg/mL and the concentration at 1 h ([2]; topical 1%) was 683 µg/mL. The concentration at 2 h ([2]; topical 1%) was 378 µg/mL, the “Compound Levels in Neck/Back Skin” value ([2]; topical 0.1%) was 5.62 µg/mL and the “Compound Levels in Neck/Back Skin” value ([2]; topical 0.5%) was 49.17 µg/mL. The “Compound Levels in Neck/Back Skin” value ([2]; topical 1%) was 14.73 µg/mL, the “Survival Rates” value ([3]; topical 0.1%, Day 0) was 100% and the “Survival Rates” value ([3]; topical 0.1%, Day 3) was 100%. The “Survival Rates” value ([3]; topical 0.1%, Day 6) was 100%, the “Survival Rates” value ([3]; topical 0.1%, Day 9) was 100% and the “Survival Rates” value ([3]; topical 0.1%, Day 12) was 100%. For the same molecule, the “Survival Rates” value ([3]; topical 0.1%, Day 15) was 100%, the “Survival Rates” value ([3]; topical 0.1%, Day 18) was 100% and the “Survival Rates” value ([3]; topical 0.1%, Day 21) was 100%. For the same molecule, the “Survival Rates” value ([3]; topical 0.1%, Day 24) was 100%, the “Survival Rates” value ([3]; topical 0.1%, Day 25) was 100% and the “Survival Rates” value ([3]; topical 0.5%, Day 0) was 100%. The “Survival Rates” value ([3]; topical 0.5%, Day 3) was 100%, the “Survival Rates” value ([3]; topical 0.5%, Day 6) was 100% and the “Survival Rates” value ([3]; topical 0.5%, Day 9) was 100%. For the same molecule, the “Survival Rates” value ([3]; topical 0.5%, Day 12) was 100%, the “Survival Rates” value ([3]; topical 0.5%, Day 15) was 100% and the “Survival Rates” value ([3]; topical 0.5%, Day 18) was 100%. The “Survival Rates” value ([3]; topical 0.5%, Day 21) was 100%, the “Survival Rates” value ([3]; topical 0.5%, Day 24) was 100% and the “Survival Rates” value ([3]; topical 0.5%, Day 25) was 100%. The “Survival Rates” value ([3]; topical 1%, Day 0) was 100%, the “Survival Rates” value ([3]; topical 1%, Day 3) was 100% and the “Survival Rates” value ([3]; topical 1%, Day 6) was 100%. The “Survival Rates” value ([3]; topical 1%, Day 9) was 100%, the “Survival Rates” value ([3]; topical 1%, Day 12) was 100% and the “Survival Rates” value ([3]; topical 1%, Day 15) was 100%. The “Survival Rates” value ([3]; topical 1%, Day 18) was 100%, the “Survival Rates” value ([3]; topical 1%, Day 21) was 100% and the “Survival Rates” value ([3]; topical 1%, Day 24) was 100%. The “Survival Rates” value ([3]; topical 1%, Day 25) was 100%, the “systemic toxicity compared to topical Trametinib” value ([3]; topical application) was “less systemic toxicity” and the survival ([3]; topically applied 0.1%, 0.5%, and 1% formulations, 25 days) was “All mice survived”.
